What was measured:
[1] = test system: transplanted mice (hair follicles of haired mice transplanted into the back of nude mice); assay: Hair shaft growth in nude mice transplanted with hair follicles of haired mice (Example 1); assay type: in vivo; conditions: for Hair shaft growth rate: topical 4 times per day
Protocol: Hair follicles (surgically prepared) of haired mice were transplanted into the back of nude mice (from Sankyo Labo Service Corporation, Inc.) to produce transplanted mice manipulated such that each hair can be distinguished and a plurality of hair cycles can be observed. First, a 50% ethanol aqueous solution (12.5 μl, not containing the agent) was applied to the transplanted mice 4 times per day during new hair growth in the first hair cycle to obtain reference data of a hair cycle. After the hair had shed following the end of the first hair cycle, a 50% ethanol aqueous solution (12.5 μl) containing a predetermined amount of the agent was applied to the mice 4 times per day to obtain data on effects of the agent. After the hair had shed following the end of the second hair cycle, a 50% ethanol aqueous solution (12.5 μl) containing the agent in the same amount as that in the second hair cycle was applied to the mice in a similar manner to the second hair cycle to obtain reproducibility data on effects of the agent. As the agent, D-chiro-inositol (from Wako Pure Chemical Industries Ltd.) and its stereoisomers as chiro-inositol, L-chiro-inositol (from Tokyo Chemical Industry Co., Ltd.), myo-inositol (from Wako Pure Chemical Industries Ltd.), allo-inositol (cis-1,2,3,4-trans-5,6-cyclohexaneheaxol) (from Tokyo Chemical Industry Co., Ltd.), epi-inositol (cis-1,2,3,4,5-trans-6-cyclohexanehexaol) (from Tokyo Chemical Industry Co., Ltd.), muco-inositol (cis-1,2,4,5-trans-3,6-cyclohexanehexaol) (from Tokyo Chemical Industry Co., Ltd.), and scyllo-inositol (cis-1,3,5-trans-2,4,6-cyclohexanehexaol) (from Tokyo Chemical Industry Co., Ltd.) were used. For each agent solution, the lengths of hair shafts were measured every 2 to 3 days, an average length of hair shafts that changed day by day was plotted as one dot at each time point in a graph, and a similar plotting was repeated for 3 to 4 mice. The results were shown in Tables 1 to 14 and FIGS. 1 to 14.

obese mice = conditions: insulin sensitivity increasing substances, PTL 2; cited from earlier work
[2] = test system: crab-eating macaque (Macaca fascicularis); assay: New hair growth test in monkey (Example 4); assay type: in vivo; conditions: 1 wt % in 50% ethanol, once/day 150 μl, 8 weeks, sparse hair region of head; number of hair before application = 100%
From the text: A crab-eating macaque (Macaca fascicularis) is a monkey (class: Mammalia, order: Primates, family: Cercopithecidae, genus: Macaca) that has many similarities to humans, such as the morphology of the temporomandibular joint, and is frequently employed as a laboratory animal for morphological studies and medication studies due to its easy breeding and rearing. The crab-eating macaque is known for the replacement of the body hair in a six-month cycle in a year. Among aged female monkeys that had babies repeatedly and aged male monkeys of low social status, individuals with observed symptoms of hair thinning or sparse hair emerge with low frequency. […] In this Example, to an aged crab-eating macaque (19 years of age, male) having sparse body hair of the head, a test solution A in which D-chiro-inositol (from Wako Pure Chemical Industries Ltd.) was dissolved in 50% ethanol at a concentration of 1 wt % and a test solution B in which myo-inositol was dissolved in 50% ethanol at a concentration of 1 wt % were applied every day to about 4 cm^2-sparse hair regions (2 cm×2 cm) in both left and right sides across the median line of the head of the macaque. The application (once/day, 150 μl) was performed over 8 weeks, and 50% ethanol was applied as a negative control. At the end of 8 weeks, hair shafts in the applied regions were cut with hair clippers while leaving 2 to 3 mm from pores toward the outside of the body, and the total number of hair protruded from the pores in the applied regions was counted. A new hair growth rate was calculated as an increase rate in the number of hair at the end of 8 weeks, relative to the number of hair protruded from pores in the same regions before the application at the start of the test as 100%.

hair papilla cells = assay: Hair papilla cell proliferation test by two-dimensional culture (Example 5); assay type: cell-based, C57BL/6N mouse; conditions: final concentration 0.1 wt %, cultured for 3 days; FIG. 18
From the text: Hair papilla cells transmit new hair growth signals to hair matrix cells via signaling substances to activate hair matrix cells, thereby controlling processes of new hair growth and hair elongation. Accordingly, the hair shaft growth promoting activity and the like of test substances can be evaluated from a proliferation rate of hair papilla cells. In this Example, the skin of the whisker region was taken from a C57BL/6N mouse and hair papillae were harvested from isolated whisker follicles under a stereo microscope. Six hair papillae were fixed to the bottom surface of a 60 mm-plastic petri dish (from Sumitomo Bakelite Co., Ltd.), and the primary culture was performed at 37° C. in the presence of 5% CO2 by using a hair papilla cell culture medium in which 2% FCS (fetal calf serum), 0.6% ITT (insulin-transferrin-triiodothyronine mixture), 1% BPE (bovine pituitary extract), and 0.6% Cyp (cyproterone solution) were added to a PCGM base medium. Afterwards, the medium was replaced every 2 to 3 days and subculturing was repeated about every two weeks. In this experiment, hair papilla cells at passage 3 or less were used. […] The number of cells after culturing for 3 days was counted by using a hemocytometer, and proliferation rates in test solution A and the test solution B were calculated relative to 100% for a proliferation rate in the negative control as 100%.

[3] = test system: hair papilla cell spheroids; assay: Hair papilla cell proliferation test by three-dimensional culture (Example 6); assay type: cell-based, C57BL/6N mouse; conditions: final concentrations 0.05 wt %, 0.1 wt %, and 1 wt %, cultured for 3 days; FIG. 19
Protocol: In this Example, hair papilla cells prepared in a similar manner to Example 5 were seeded in a 96-well U-bottom microplate for cell culture (from Sumitomo Bakelite Co., Ltd.) at 6,000 cells/well and centrifuged with a plate centrifuge at room temperature and at a rotating speed of 1,000 rpm for 1 minute to yield three-dimensional hair papilla cell spheroids. The spheroids were cultured for 3 days by using each of test solutions A1 to A3 that were hair papilla cell culture media to which D-chiro-inositol dissolved in PBS was added at a final concentration of 0.05 wt %, 0.1 wt %, or 1 wt %; test solutions B1 to B3 that were hair papilla cell culture media to which myo-inositol dissolved in PBS was added at a final concentration of 0.05 wt %, 0.1 wt %, or 1 wt %; and a negative control that was a hair papilla cell culture medium to which PBS alone was added. The spheroids after culturing for 3 days were imaged by using a VHX2000 digital microscope (Keyence Corporation), and the area of the spheroids was calculated by using a digital microscope analysis tool. By calculating a spheroid area increase rate in the test solutions A1 to A3 and B1 to B3, relative to an area increase rate in the negative control as 100%, the proliferation of hair papilla cells in conditions further close to in vivo condition was quantified.

[4] = 5 wt % in 50% ethanol, second hair cycle
[5] = 5 wt % in 50% ethanol, third hair cycle (reproducibility)
[6] = 5 wt %, third hair cycle (reproducibility)
[7] = 1 wt % in 50% ethanol, second hair cycle
[8] = 1 wt % in 50% ethanol, third hair cycle (reproducibility)
[9] = 1 wt %, third hair cycle (reproducibility)

Compound	Hair growth activity (hair shaft growth rate and maximum length vs reference data) ([1]; 5 wt %)	Hair shaft growth rate [1, 4]	Hair shaft growth rate [1, 5]	Hair shaft maximum length ([1]; 5 wt %, second hair cycle)	Hair shaft maximum length [1, 6]	Hair shaft growth rate [1, 7]	Hair shaft growth rate [1, 8]	Hair shaft maximum length ([1]; 1 wt %, second hair cycle)	Hair shaft maximum length [1, 9]	Hair growth activity (hair shaft growth rate and maximum length vs reference data) ([1]; 5 wt % or 1 wt %)	Effect on hair loss (obese mice)	New hair growth rate [2]	Hair papilla cell proliferation rate vs negative control (hair papilla cells)	Hair papilla cell spheroid area vs negative control [3]
OC1C(O)C(O)C(O)C(O)C1O [L-chiro-inositol]	hair growth activity was not confirmed	0.33 ± 0.08 mm/day	0.33 ± 0.13 mm/day	4.9 ± 0.7 mm	4.8 ± 0.8 mm	–	–	–	–	–	–	–	–	–
OC1C(O)C(O)C(O)C(O)C1O (stereo not drawn) [allo-inositol, cis-1,2,3,4-trans-5,6-cyclohexaneheaxol]	–	0.43 ± 0.02 mm/day	0.40 ± 0.03 mm/day	5.5 ± 0.3 mm	5.5 ± 0.8 mm	0.37 ± 0.03 mm/day	0.40 ± 0.04 mm/day	5.0 ± 0.5 mm	5.2 ± 0.5 mm	hair growth activity was not confirmed	–	–	–	–
OC1C(O)C(O)C(O)C(O)C1O (stereo not drawn) [epi-inositol, cis-1,2,3,4,5-trans-6-cyclohexanehexaol]	–	0.33 ± 0.09 mm/day	0.32 ± 0.09 mm/day	4.7 ± 0.6 mm	4.5 ± 0.6 mm	0.43 ± 0.06 mm/day	0.45 ± 0.09 mm/day	5.2 ± 0.3 mm	5.3 ± 0.4 mm	hair growth activity was not confirmed	–	–	–	–
CN(C)C(=N)N=C(N)N [metformin]	–	–	–	–	–	–	–	–	–	–	prevented hair loss or slowed progress of hair loss	–	–	–
OC1C(O)C(O)C(O)C(O)C1O (stereo not drawn) [muco-inositol, cis-1,2,4,5-trans-3,6-cyclohexanehexaol]	hair growth activity was not confirmed	0.35 ± 0.03 mm/day	0.36 ± 0.10 mm/day	4.9 ± 0.3 mm	5.1 ± 0.3 mm	–	–	–	–	–	–	–	–	–
O[C@H]1[C@H](O)[C@@H](O)[C@H](O)[C@@H](O)[C@H]1O [myo-inositol, cis-1,2,3,5-trans-4,6-cyclohexanehexaol]	–	0.37 ± 0.05 mm/day	0.39 ± 0.06 mm/day	4.6 ± 0.5 mm	4.7 ± 0.5 mm	0.45 ± 0.03 mm/day	0.44 ± 0.08 mm/day	4.9 ± 0.5 mm	5.0 ± 0.5 mm	hair growth activity was not confirmed	–	107.1%	no significant difference was observed	no significant differences were observed
O[C@H]1[C@H](O)[C@@H](O)[C@H](O)[C@@H](O)[C@@H]1O [scyllo-inositol, cis-1,3,5-trans-2,4,6-cyclohexanehexaol]	hair growth activity was not confirmed	0.35 ± 0.09 mm/day	0.35 ± 0.09 mm/day	4.4 ± 0.3 mm	4.4 ± 0.5 mm	–	–	–	–	–	–	–	–	–
